In US9180094B2, “High porosity materials, scaffolds, and method of making” (The Texas A&M University System, priority 2011, dated 2015):

Assays:
[1] = test system: human mesenchymal stem cells; experiment: Cell viability with scaffold samples introduced into the medium; format: cell-based; conditions: scaffold prepared with 5 wt. % initiator in the medium, after 72 hours
Experimental: Said initiators are typically those with decomposition temperature ranging from between about 25 to about 100° C. Examples include but are not limited to azobis-isobutyronitrile (AIBN) and benzoyl peroxide (BPO). Preliminary tack-free time studies of polyHIPE emulsions prepared with 5 wt. % AIBN or BPO indicated a […] cure time compared with emulsions prepared with 5 wt. % ammonium persulfate. The time to cure was about 7-12 hours with an ammonium persulfate initiator (aqueous phase free radical initiator) as compared with about 1.5 hours with the AIBN or BPO (organic soluble free radical initiator).

cells = experiment: Cytocompatibility of cells after addition of surfactant PGPR; format: cell-based; conditions: concentrations that permit emulsification (0.1, 1.0 or 5 wt. %)
Description: FIG. 3C depicts cytocompability of cells after addition of the surfactant, PGPR, at 0.1 wt. %, 1.0 wt. % or 5 wt. %;

[2] = test system: human mesenchymal stem cells (hMSCs); experiment: hMSC adhesion and spreading on scaffolds and films; format: cell-based; conditions: polyHIPE scaffolds fabricated with PGPR, AIBN initiated, between 3 and 24 hours after seeding
Experimental: For three-dimensional scaffolds described herein, the behavior of the surfactant may be further modified to improve cell adhesion to the scaffold of cells, such as fibroblasts, mesenchymal stem cells, osteoblasts, chondrocytes, and other matrix formed cells. […] PolyHIPEs were prepared with PGPR and initiated with AIBN. When cured, as previously described, samples were sectioned using a precision diamond wafering saw. Prior to seeding with human mesenchymal stem cells (hMSCs), the polyHIPEs samples were soaked in 70% ethanol to sterilize, subjected to a wetting ladder to increase aqueous solution penetration, and incubated overnight in medium enhanced with 40 wt. % fetal bovine serum (FBS). The scaffolds were then seeded at a concentration of about 2×10^3 and 10×10^3 cells/cm^2. On scaffolds fabricated with PGPR, hMSC adhesion and spreading declined when measured between 3 and 24 hours after seeding. It was hypothesized that PGPR may be affecting protein adsorption and/or their conformation when attempting to localize on the polyHIPE scaffold. This was further analyzed on PFDMA films prepared with and without PGPR. The effect of PGPR on protein adsorption and/or conformation was confirmed at 24 hours, in which hMSC adhesion and spreading decreased on PGPR-PFDMA film specimens as compared with control (PFDMA alone) specimens. […]

Macromer viscosity = format: physicochemical
Experimental: Further described is a method of preparing a polyHIPE. In one form the polyHIPE is prepared with a biodegradable fumerate having ester linkages. One example is PFDMA. The method further comprises a two-step process. The first step produced an intermediate molecule as a diester intermediate. In one form the intermediate was bis-(1,2-hydroxypropyl)fumarate (FIG. 1A). The intermediate was then functionalized with methacrylate endgroups (FIG. 1B). With purification, the structure of the resulting formed material, PFDMA, was confirmed with ^1H NMR, as represented in FIG. 2. Integration ratio of methacryloyl protons to fumarate protons in the ^1H NMR spectra was confirmed and the formed structure was, in this example, a PFDMA as a single fumarate unit with two terminal methacrylate groups. The average functionalization was calculated to be greater than 80%. In some embodiments, functionalization was calculated to be at or about 83%. The methacrylate and fumarate groups provided sites for radical crosslinking as further described below. It is, in part, the crosslinking as described herein that allows cure of the HIPE at physiological temperatures.

CC(C)(C#N)N=NC(C)(C)C#N [AIBN, azobis-isobutyronitrile]
effect on cell viability [1]: Neither 5 wt. % AIBN or 5 wt. % BPO appeared to greatly effect cell viability

O=C(OOC(=O)c1ccccc1)c1ccccc1 [BPO, benzoyl peroxide]
effect on cell viability [1]: Neither 5 wt. % AIBN or 5 wt. % BPO appeared to greatly effect cell viability

polyglycerol polyricinoleate [PGPR 4125]
cytocompatibility with cells (cells): cytocompatible
hMSC adhesion and spreading on scaffolds [2]: declined

propylene fumarate dimethacrylate [PFDMA]
viscosity (Macromer viscosity): about 125 cP
